Reference: ChEMBL document CHEMBL1201862, “PubChem BioAssay data set” (2004)
The source made the active and inactive calls.

Experiments:
[1] = test system: Streptococcus; test: Group A Streptococcus viability loss, dose response, counter-screen for streptokinase expression inhibitor project, luminescence, BacTiterGlo (AID 1915); type: functional, organism-based;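 further: potency for reduction of bacterial viability or growth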
[2] = test system: INS1; test: beta cell apoptosis inhibitors, cytokine rescue, dose response, luminescence, retest (AID 449756); type: functional, cell-based; conditions: Rattus norvegicus;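 further: cell death triggered by IL-1 beta plus TNF-alpha plus IFN-gamma mixture; protective hits raise ATP signal compared with cytokine alone wells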
[3] = molecular target: NACHT, LRR and PYD domains-containing protein 3 (Homo sapiens, UniProt Q96P20); test: NALP3 inhibitors in yeast, dose response, luminescent (AID 488799); type: functional
Chain of NACHT, LRR and PYD domains-containing protein 3 (Q96P20 whole entry, the tested form may be a part): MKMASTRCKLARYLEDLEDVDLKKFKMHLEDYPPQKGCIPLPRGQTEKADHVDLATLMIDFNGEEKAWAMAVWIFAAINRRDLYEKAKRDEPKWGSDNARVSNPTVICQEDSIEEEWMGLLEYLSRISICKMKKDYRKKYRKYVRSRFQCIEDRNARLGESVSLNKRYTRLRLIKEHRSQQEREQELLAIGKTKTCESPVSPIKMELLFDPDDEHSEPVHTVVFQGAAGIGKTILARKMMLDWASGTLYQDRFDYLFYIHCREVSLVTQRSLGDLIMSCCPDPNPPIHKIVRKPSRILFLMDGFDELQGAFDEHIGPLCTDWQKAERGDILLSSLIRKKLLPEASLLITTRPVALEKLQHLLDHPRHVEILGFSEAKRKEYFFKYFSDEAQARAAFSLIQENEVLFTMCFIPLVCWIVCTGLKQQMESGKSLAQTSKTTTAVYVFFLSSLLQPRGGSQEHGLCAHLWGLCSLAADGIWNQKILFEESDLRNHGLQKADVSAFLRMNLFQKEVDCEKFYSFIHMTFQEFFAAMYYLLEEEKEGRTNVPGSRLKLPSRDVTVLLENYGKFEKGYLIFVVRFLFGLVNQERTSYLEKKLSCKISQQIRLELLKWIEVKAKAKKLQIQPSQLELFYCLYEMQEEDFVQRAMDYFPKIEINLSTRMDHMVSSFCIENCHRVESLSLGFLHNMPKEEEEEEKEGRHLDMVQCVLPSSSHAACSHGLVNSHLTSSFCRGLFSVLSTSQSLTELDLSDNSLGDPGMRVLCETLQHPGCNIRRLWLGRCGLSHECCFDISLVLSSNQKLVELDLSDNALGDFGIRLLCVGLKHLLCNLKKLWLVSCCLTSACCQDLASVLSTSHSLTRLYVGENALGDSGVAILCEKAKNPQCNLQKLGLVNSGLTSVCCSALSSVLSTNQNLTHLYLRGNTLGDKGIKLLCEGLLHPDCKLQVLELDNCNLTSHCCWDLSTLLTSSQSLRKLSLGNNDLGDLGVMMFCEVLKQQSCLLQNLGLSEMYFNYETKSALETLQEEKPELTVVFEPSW

[4] = molecular target: T1, Replicative DNA helicase DnaB (Mycobacterium tuberculosis, UniProt P9WMR3); test: DnaB intein splicing inhibitors, dose response, biochemical, cell-free fluorescence (AID 449749); type: functional
T1 sequence (P9WMR3 whole entry): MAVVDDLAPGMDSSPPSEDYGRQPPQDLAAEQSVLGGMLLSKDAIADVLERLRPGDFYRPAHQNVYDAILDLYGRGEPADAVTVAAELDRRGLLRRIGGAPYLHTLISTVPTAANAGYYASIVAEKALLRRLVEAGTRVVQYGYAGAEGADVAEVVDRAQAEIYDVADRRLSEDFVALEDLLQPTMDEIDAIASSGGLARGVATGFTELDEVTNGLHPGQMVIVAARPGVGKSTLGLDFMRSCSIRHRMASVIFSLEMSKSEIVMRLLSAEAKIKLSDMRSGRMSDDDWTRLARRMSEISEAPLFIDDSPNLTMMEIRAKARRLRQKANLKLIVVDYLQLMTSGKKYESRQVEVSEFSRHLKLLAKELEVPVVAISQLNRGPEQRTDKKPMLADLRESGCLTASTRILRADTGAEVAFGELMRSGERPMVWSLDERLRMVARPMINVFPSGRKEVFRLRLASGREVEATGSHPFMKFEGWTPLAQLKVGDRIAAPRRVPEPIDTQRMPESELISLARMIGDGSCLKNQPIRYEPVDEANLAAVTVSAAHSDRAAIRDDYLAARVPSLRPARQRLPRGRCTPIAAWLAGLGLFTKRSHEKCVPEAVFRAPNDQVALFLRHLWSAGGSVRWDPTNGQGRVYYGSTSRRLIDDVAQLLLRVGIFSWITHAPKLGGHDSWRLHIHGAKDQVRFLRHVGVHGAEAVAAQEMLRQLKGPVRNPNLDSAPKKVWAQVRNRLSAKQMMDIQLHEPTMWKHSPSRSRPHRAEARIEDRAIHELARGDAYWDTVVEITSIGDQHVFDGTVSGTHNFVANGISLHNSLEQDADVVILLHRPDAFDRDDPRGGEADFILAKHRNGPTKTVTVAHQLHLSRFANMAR

[5] = molecular target: T2, Streptokinase A (Streptococcus pyogenes serotype M1, UniProt P10520); test: S. pyogenes streptokinase expression inhibitors, potency, dose response, plasminogen activation absorbance, OD405 (AID 1914); type: functional, Streptococcus pyogenes M1 GAS;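 further: secreted streptokinase activity via plasminogen activation per viability signal from cell pellet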
T2 sequence (P10520 whole entry): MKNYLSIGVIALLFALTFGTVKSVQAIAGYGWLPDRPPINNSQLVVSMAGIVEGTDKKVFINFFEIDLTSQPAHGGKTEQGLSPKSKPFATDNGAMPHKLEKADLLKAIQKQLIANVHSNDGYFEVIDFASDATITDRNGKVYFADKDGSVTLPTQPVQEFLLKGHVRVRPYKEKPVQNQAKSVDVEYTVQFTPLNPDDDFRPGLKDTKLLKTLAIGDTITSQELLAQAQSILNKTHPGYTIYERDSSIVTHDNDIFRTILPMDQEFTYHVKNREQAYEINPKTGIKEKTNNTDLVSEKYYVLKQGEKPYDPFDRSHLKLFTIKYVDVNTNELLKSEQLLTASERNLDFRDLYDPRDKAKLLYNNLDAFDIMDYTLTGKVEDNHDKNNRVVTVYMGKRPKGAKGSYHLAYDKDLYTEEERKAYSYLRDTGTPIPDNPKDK

[6] = test system: Streptococcus sp. 'group A'; test: growth inhibition of control SK(-) GAS strain, dose response, counter-screen for streptokinase expression inhibitor project, luminescence, kanamycin, BacTiterGlo, confirmation (AID 1900); type: functional, organism-based
[7] = Counterscreen for AddAB inhibitors: absorbance-based bacterial cell-based high throughput dose response assay for inhibitors of bacterial viability. [Related pubchem assays (depositor defined):AID435030, AID449728, AID449731, AID488942, AID488955, AID488956]; type: functional

SMILES	EC50 [1]	AC50 [2]	IC50 [3]	AC50 [4]	EC50 [5]	EC50 [6]	IC50 [7]
COc1ccc(CNC(=O)c2c(C)oc3c2C(=O)c2ccccc2C3=O)cc1	6.35 µM (active)	2.8 µM (active)	9.7 µM (active)	13.3 µM (active)	> 150 µM (not active)	0.737 µM (active)	–
CCSc1nsc(NC(=O)Nc2cccc(F)c2)n1	20.7 µM (active)	–	1.97 µM (active)	–	40.5 µM (active)	9.91 µM (active)	> 119 µM (inactive)
O=[N+]([O-])c1ccc(/C=N/n2cnc3ccccc32)s1	–	2.6 µM (active)	–	–	–	–	91.4 µM (inactive)
CC(C)c1ccc(S(=O)(=O)/N=C2\C=C(NS(=O)(=O)c3ccccc3)C(=O)c3ccccc32)cc1	–	–	–	3.92 µM (active)	–	–	–
